In the NIST ThermoML archive (doi:10.1016/j.jct.2016.06.007):

Assay: mn = molality of the nth substance listed, in mol/kg
Details: Liquid, m1 = 7.377; for viscosity: Falling or rolling sphere viscometry; for mass density: Vibrating tube method

CN(CCO)CCO [N-methyldiethanolamine] + O
Details | mass density [kg/m3] | viscosity [mPa·s]
313.15 K, 6.3 kPa | 1031.4 | 4.23
328.15 K, 13.7 kPa | 1021.6 | 2.82
343.15 K, 27.4 kPa | 1009.7 | 1.83
